“And” between values parts separate entries of the source, which are not always exact repeats. Identical values can stand only once. “Also recorded” adds a separate entry of the source.
Key:
[1] = system: virions from HIV-1-transfected HeLa cells (pNL4-3); experiment: Electron micrographs of virions from HIV-1 transfected HeLa cells; format: cell-based, human; settings: 10 and 20 uM; vs untreated control cells
Protocol: Virions collected from HeLa cells 24 hours post-transfected with pNL4-3 HIV-1 were treated with or without FX101 for 2 hours, washed with phosphate-buffered saline, pelleted by ultracentrifugation, fixed with buffer containing 2% glutaraldehyde and 0.1M sodium cacodylate as described (Freed, 1994), and analyzed by electron microscopy. These images reveal comparative distortions of both viral core and corresponding membranes of viral progeny, consistent with published images of immature virion particles having a thick electron-dense outer shell and an electron-lucent center lacking a typical cone-shaped core, produced by nucleocapsid mutant virions (Tanchou, 1998). Mutational deletion of either or both zinc finger domains of the nucleocapsid protein also produces morphologically altered virions, reduces virion release and alters RNA packaging (Houzet, 2008). The failure of nucleocapsid protein proteins to chaperone viral RNA together with the failure to form the nucleocapsid membrane reflects two roles of nucleocapsid proteins involving zinc finger domains. Obstruction of virion assembly may create impotent virions while maintaining antigens for host humoral immune response as virus-like particles. […]

p24 Gag protein = experiment: Western blot of p24 Gag protein, pNL4-3-transfected HeLa cells and viral progeny; format: cell-based, HIV-1; settings: increasing concentration
Source text: In vitro, this process occurs in the presence of nucleic acids and a cofactor (Campbell, 1999; Campbell, 2001). Immature particles fail to consolidate an outer membrane, emphasizing the critical role of Gag proteins in the assembly process (Didierlaurent, 2008). As virions bud from the host membrane, viral protease cleaves p55 Gag into its final mature components: matrix (p17), capsid (p24), nucleocapsid (p7) and p6, each designated by its apparent molecular weight. […] Effects may extend across the Gag polyprotein and its components, further compounding activities.

Petaluma strain of FIV = experiment: Plasma viremia by reverse transcription TaqMan PCR in FIV-infected cats; format: in vivo, domestic cat; settings: for Plasma Viremia: cats BR, CF
Source text: Currently available antiretrovirals require daily dosing, often in combination therapy. Two 12^+-year old specific-pathogen-free domestic female cats infected >5 years with the Petaluma strain of FIV were used in this study. The animals were housed individually in a climatized animal facility in accordance with standards, had ad libitum access to fresh water and food, and were sedated with Tiletamine/Zolazepam intramuscularly prior to any procedure. The cats weighed from 3-5 kg each. Three weeks before initiation of the treatment and at scheduled times, samples were collected for hematological and virological analyses. The cats received 9 intravenous doses of 3 mg/kg FX101 over 4.5 weeks (2× weekly).
Viral RNA extracted from plasma using the QIAmp viral RNA kit (QIAGEN), was reverse transcribed and amplified by reverse transcription TaqMan PCR. Reverse transcription and amplification conditions, and minimum detection limits of the assay (100-200 copies/mL plasma) are described elsewhere (Pistello, 2005). This measure represents viral presence in circulation, reflecting potential infectivity and productive synthesis of viral particles.
0.1664 g FX101 was dissolved into 30 mL 15% DMSO/PBS and stirred overnight. This solution was sterile-filtered using a 20-mL syringe fitted with a […] Sarstedt filter. Each dose was administered under anesthesia, a 1.5 mL venous injection using a 2.5 mL syringe fitted with a 22G 1¼-in. needle (latex free). Feline BR weighed 3.2 kg at the start of the experiment and CF weighed 2.8 kg. Each received 8.3 mg drug with each dose, so dosages were 2.6 mg/kg for BR and 3.0 mg/kg for CF.
Table 8 illustrates measures of plasma viremia from the two test cats, “BR” and […] relative to the treatment period, receiving intravenous injections of FX101 twice weekly over four weeks. Each blood sample was taken immediately prior to drug injection for the scheduled dosing, August 23-September 30. This provided two pretreatment samples as baseline measures, 3 samples during treatment, and two post-treatment samples; note the addition of an unscheduled sample October 20. […] Following the last dosage, the first post-treatment results were ambiguous, with one cat experiencing a strong rebound and the other remaining below detection. This difference may be attributable to a uterine infection experienced by cat “BR” at this time—a historically frequent occurrence for this cat. It is well known that lipopolysaccharides (LPS) induce lentiviral replication, and this may therefore be related.

MMP-2 = experiment: Feline blood serum immunofluorescent bead analysis: MMP-2; format: in vivo, cat; settings: for MMP-2, relative blood serum measure: cats BR, CF
Protocol: Test sera samples from select felines were analyzed using the Rules-Based Medicine (Austin, Tex.) human multi-analyte for 90 measures from a single sample of less than 0.5 mL. The assay uses immunofluorescent beads to simultaneously measure antibody recognition to individually identifiable colored beads, each conjugated with a specific antibody, within a single well plate. Blood samples were drawn preceding (pretreatment) and following (post treatment) one-month FX101 treatment (from felines in Example 6), and are compared with two uninfected control felines. Human cross-reactive antibodies are commonly used for felines, and are relative rather than quantitative measures. Reductions in TNF-alpha and MMP-2 are evident in treated cats; TIMP-1 (Tissue Inhibitor of Metalloproteinases) is not associated with the downregulation of MMP-2. Both MMP-2 and MMP-9, as well as MCP-1, are considered important contributors to the penetration of virally-infected cells across the BBB (Webster, 2006). Additional comments follow the table.

[2] = molecular target: synthetic peptide F2, the carboxy-terminal zinc finger domain of HIV-1 (Human immunodeficiency virus type 1 group M subtype B, UniProt P12493); settings: 100 pmole/microliter solutions, equal volumes; isotopic distribution of platinum at m/z~631
Protocol: FIGS. 1A and 1B show Time of Flight (TOF) mass spectroscopy (MS) fragmentation pattern of the synthetic peptide F2, the carboxy-terminal zinc finger domain of HIV-1, bound to platinum. […] Equal volumes of F2 with FX101, F2 with ZnCO3, F2 with both FX101 and ZnCO3 were mixed, resulting in four total peptide solutions. Full TOF MS was acquired on the QSTAR at the Johns Hopkins Proteomics Core Facility with 1 uL of original sample diluted 1:10 in 50% methanol with 0.1% formic acid/water and 3 uL of this mixture loaded onto the 2 um New Objective tip and nano-sprayed using ion spray voltage of 1200 eV; mass calibration of Csl mixture was performed prior to sample injection. Mass range 590 kDa (50%) to 10500 kDa (50%) was collected for 1.0 minute.

For `[NH2][Pt]([NH2])([Cl])([Cl])([Cl])[N+](=O)[O-]` [FX101, nitrotrichlorodiamminoPt(IV)], the “virion morphology (phenotype of virions produced)” value [1] was “immature virions; also recorded: nucleotide-defective and nucleotide-deficient virion particles with morphologically altered phenotypes”, the “mature p24 content in host cells and viral progeny (Western blot)” value (p24 Gag protein) was “absence of mature p24” and the “plasma viremia after treatment (in words)” value (Petaluma strain of FIV; 4 weeks to 9 months past the final dosage, no additional therapies) was “significantly lower viremia as compared with baseline measures; also recorded: undetectable plasma viremia”. For the same molecule, the “Plasma Viremia” value (Petaluma strain of FIV; Aug. 2, 2007 pretreatment) was 2582 Viral RNA Copies/mL Plasma and 4282 Viral RNA Copies/mL Plasma, the “Plasma Viremia” value (Petaluma strain of FIV; Aug. 23, 2007 start of treatment period, blood collected prior to dosing) was 8841 Viral RNA Copies/mL Plasma and 6974 Viral RNA Copies/mL Plasma and the “Plasma Viremia” value (Petaluma strain of FIV; Aug. 30, 2007 treatment period, i.v. twice weekly) was 1300 Viral RNA Copies/mL Plasma and 1249 Viral RNA Copies/mL Plasma. For the same molecule, the “Plasma Viremia” value (Petaluma strain of FIV; Feb. 1, 2006 pretreatment) was 6557 Viral RNA Copies/mL Plasma and 3864 Viral RNA Copies/mL Plasma, the “Plasma Viremia” value (Petaluma strain of FIV; Jun. 12, 2008 (+38 wk) post treatment) was <200 Viral RNA Copies/mL Plasma and the “Plasma Viremia” value (Petaluma strain of FIV; Mar. 1, 2006 pretreatment) was 3072 Viral RNA Copies/mL Plasma and 2819 Viral RNA Copies/mL Plasma. The “Plasma Viremia” value (Petaluma strain of FIV; Mar. 27, 2008 (+27 wk) post treatment) was <200 Viral RNA Copies/mL Plasma, the “Plasma Viremia” value (Petaluma strain of FIV; Oct. 20, 2007 (+4 wk) post treatment) was 898 Viral RNA Copies/mL Plasma and 1057 Viral RNA Copies/mL Plasma and the “Plasma Viremia” value (Petaluma strain of FIV; Sep. 4, 2007 treatment period, i.v. twice weekly) was <100 Viral RNA Copies/mL Plasma. The “Plasma Viremia” value (Petaluma strain of FIV; Sep. 20, 2007 treatment period, i.v. twice weekly) was <100 Viral RNA Copies/mL Plasma, the “plasma viremia during treatment (in words)” value (Petaluma strain of FIV; both cats, over two weeks of twice weekly i.v. injections) was “significant reduction in plasma viremia” and the “MMP-2, relative blood serum measure” value (MMP-2; post treatment (one-month FX101 treatment)) was 2070 ng/mL and 2120 ng/mL. For the same molecule, the “MMP-2 in serum of treated cats (in words)” value (MMP-2; post vs pre one-month treatment) was “Reductions”, the “MMP-2, relative blood serum measure” value (MMP-2; pretreatment) was 3000 ng/mL and 3150 ng/mL and the “direct binding of platinum to F2 peptide by TOF MS” value [2] was “Pt-bound peptide”.

From patent publication US8895610B1, “Platinum (IV) compounds targeting zinc finger domains” (priority 2007, dated 2014)
